Assay results: patent US20070142433A1, “Angiogenesis-affecting compounds and methods of use thereof” (priority 2004, published 2007)
Where a name gives a salt, the structure may show the parent alone.

Columns and labels:
[1] = system: tumor size and vessel density; assay: Further studies with other CPT-1 inhibitors; details: CPT-1 inhibitors at 10 and 100 μm; FIGS. 37A-40
[2] = system: angiogenesis induced by vascular permeability factor/vascular endothelial growth factor; details: Basu S et al., Nat Med 2001; cited from earlier work
[3] = system: HUVEC sprouting; assay: 3D angiogenesis assay of stimulators (HUVEC sprouting alone, with VEGF, with PTK787/ZK222584); type: cell-based, human; details: for HUVEC sprouting, compounds alone, compared to VEGF-induced sprouting: without addition of VEGF, 24 hours, basal sprouting subtracted, FIG. 22
Protocol: The HUVEC monolayer was treated for 6 hours with the compounds then the induced transcriptional changes, when compared to untreated HUVEC, were determined. The compounds were tested according to their ability to induce sprouting without addition of VEGF, in combination with VEGF and together with the VEGFR-2 inhibitor PTK787/ZK222584 (1 μM).

[4] = system: HUVEC sprouting; assay: Primary angiogenesis screen, HUVEC spheroid evaluation (EC sprouting); type: cell-based, human; details: HUVEC spheroids in collagen gel, VEGF-supplemented, 24 hours
Protocol: A test substance was selected for evaluation in angiogenesis screens. The test substance was synthesized or obtained as appropriate and stored at −20° C. in DMSO. Prior to use, the test substance was thawed and 5 mM of the substance was diluted to a 10 fold concentrated working solution (100 μM) in endothelial cell basal medium. The basal medium fraction was supplemented with 25 ng VEGF/100 μl for the stimulation of HUVEC sprouting.
The screening procedures were modified versions of those described by Korff and Augustin (J Cell Sci 112: 3249-58, 1999). By way of summary, spheroids were prepared by pipetting 400 human umbilical vein endothelial cells (HUVEC) into each well of nonadhesive 96-well plates. Prior to use the HUVEC were cultured according to the supplier's instructions (PromoCell, Heidelberg, Germany). The cells were allowed to aggregate overnight into spheroids (Korff and Augustin: J Cell Biol 143: 1341-52, 1998). After aggregation, 48 HUVEC spheriods were harvested. Each harvested spheroid was seeded in 900 μl of methocel-collagen solution and pipetted into an individual well of a 24-well plate to allow collagen gel polymerization.
(§1) Thirty (30) minutes after seeding, the test substance was added. The working dilution (10 fold concentration) was utilized, 100 μl was pipetted on top of the polymerized collagen gel in each well. The plates were then incubated at 37° C. for 24 hours. At the end of the incubation period the plates were fixed by adding 1 ml paraformaldehyde (10%) to each well.
The HUVEC spheriods were microscopically assayed for endothelial cell (EC) sprouting intensity. The degree of EC sprouting was classified into one of four groups by comparing the degree of sprouting to that observed in VEGF control cells. […] For exemplary results, see FIG. 1.

[5] = system: NHDF (human dermal fibroblasts) scattering; assay: NHDF spheroid evaluation (fibroblast scattering); type: cell-based; details: NHDF spheroids in collagen gel, no supplements, 24 hours
Protocol: Where the test compound was classified as an inhibitor or stimulator, a second screening process was performed. In the second screen, the test substance was thawed and 5 mM of the substance was diluted to a 10 fold concentrated working solution (100 μM) in endothelial cell basal medium. No supplements were used in the basal medium.
Instead of HUVEC, spheroids were prepared by pipetting 400 human dermal fibroblasts (NHDF) into each well of nonadhesive 96-well plates. Prior to use the NHDF were cultured according to the supplier's instructions (PromoCell, Heidelberg, Germany). The cells were allowed to aggregate overnight into spheroids (Korff and Augustin: J Cell Biol 143: 1341-52, 1998). After aggregation, 48 NHDF spheroids were harvested. Each of the harvested spheroids was seeded in 900 μl of methocel-collagen solution and pipetted into an individual well of a 24-well plate to allow collagen gel polymerization.
as §1
The NHDF spheroids were microscopically assayed for fibroblast scattering intensity. […] For exemplary results, see FIG. 1.

[6] = system: Alexander cells (PLC/PRF/5) subcutaneous tumor; assay: Hepato-Cellular Carcinoma Model (HCC) in vivo study, subcutaneous Alexander cells; design: species or system NMRI nu/nu mice; details: subcutaneous Alexander cell tumors in mice, about 21 days of treatment; FIGS. 28-30
Protocol: Monolayers of Alexander cells can be grown in 85% Dulbecco's Modified Eagle's Medium (DMEM), 15% Fetal Bovine Serum (FBS), 4 mM L-glutamine, 100 units penicillinG/ml, and 100 μg of streptomycin-sulfate/ml. The cells can be cultured in a humidified atmosphere of 90% air and 10% carbon dioxide at 37° C. Media may preferably be changed every 4 days.
Six to eight week old female NMRI^−nu/nu mice could be utilized. The Alexander cells can be implanted in the left flank region of the mice, for example, by injecting 4×10^7 cells in 0.2 ml aliquots into the subcutaneous space of the left flank using a 29 G needle syringe. After inoculation the appearing subcutaneous tumours can be measured by callipering and multiplying the distances of all three dimensions.
Therapy can be initiated after the tumor size has reached a volume of approximately 100 mm^3 (day 1 of the study), and continue for about 21 days.
As shown, Group 1 would serve as control, where the animals would receive no further treatment after injection of Alexander cells.
After approximately 21 days of treatment, mice could be sacrificed and tumors collected and optionally stored appropriately at −80° C. For histological examination of the tumor vasculature, cryosections of the tissues (thickness of 5-10 μm) can be taken. For visualization of the blood vessels, immunohistochemical staining for CD 31 (PECAM-1) can be performed, and vessels counted microscopically using a defined magnification (×200).

[7] = system: HUVEC sprouting; assay: Spheroid-based 3D angiogenesis assay (IC50, alone or with VEGFR-2 inhibitor); type: cell-based, human; details: determined in the spheroid-based 3D assay (FIG. 10); read-out: IC50 of the VEGFR-2 inhibitors
Source text: Therefore, the assay was applied to test compounds alone or in combination with a VEGFR-2 inhibitor to address changes in IC50. […] The VEGFR-2 inhibitor was applied at a concentration close to the IC50.

[8] = system: RENCA; assay: Cell proliferation assay (crystal violet), RENCA; type: cell-based; details: 72 hours, OD 595 nm
Protocol: (§2) In order to further confirm the surprising results described above, the compounds were tested in a cell proliferation assay. Crystal violet was used to measure cell proliferation; this basic dye stains cell nuclei and provides a sensitive, rapid evaluation. Light absorption of unstained or destained cell layers is negligible, making it possible to perform cell number measurements in wells. Six cell types (HUVEC, HDMEC, SMC, Fibroblast, A375 and RENCA) were plated and treated with the compounds in a log2 titration for 72 hours. The optimal cell number for each cell type was determined and optical density (OD) was measured at 595 nm. Each data point was measured in quadruplicate. The assay was stopped after 72 hours and subsequently analyzed. The OD-value of the plated cells before addition of the compounds was subtracted from all OD-values obtained after treatment. The percentage in relation to control proliferation was then calculated. Negative values therefore represent a count of fewer cells than were plated. The IC50 is given below in Table 1. Results are shown as a percentage in relation to the control proliferation. The IC50 were calculated using GraphPad Prism software (GraphPad Software, Inc.). Perhexiline results are depicted graphically in FIGS. 4A-4C and Erythromycin results in FIGS. 5A-5C.

[9] = system: HDMEC; assay: Cell proliferation assay (crystal violet), HDMEC; type: cell-based; details: 72 hours, OD 595 nm
Protocol: as §2

[10] = system: SMC; assay: Cell proliferation assay (crystal violet), SMC; type: cell-based; details: 72 hours, OD 595 nm
Protocol: as §2

[11] = system: A375; assay: Cell proliferation assay (crystal violet), A375; type: cell-based; details: Homo sapiens, A-375, 72 hours, OD 595 nm
Protocol: as §2

[12] = system: HUVEC; assay: Cell proliferation assay (crystal violet), HUVEC; type: cell-based; details: Homo sapiens, 72 hours, OD 595 nm
Protocol: In order to further confirm the surprising results described above, the compounds were tested in a cell proliferation assay. Crystal violet was used to measure cell proliferation; this basic dye stains cell nuclei and provides a sensitive, rapid evaluation. Light absorption of unstained or destained cell layers is negligible, making it possible to perform cell number measurements in wells.
Six cell types (HUVEC, HDMEC, SMC, Fibroblast, A375 and RENCA) were plated and treated with the compounds in a log2 titration for 72 hours. The optimal cell number for each cell type was determined and optical density (OD) was measured at 595 nm. Each data point was measured in quadruplicate. The assay was stopped after 72 hours and subsequently analyzed.
The OD-value of the plated cells before addition of the compounds was subtracted from all OD-values obtained after treatment. The percentage in relation to control proliferation was then calculated. Negative values therefore represent a count of fewer cells than were plated. The IC50 is given below in Table 1. Results are shown as a percentage in relation to the control proliferation. The IC50 were calculated using GraphPad Prism software (GraphPad Software, Inc.). Perhexiline results are depicted graphically in FIGS. 4A-4C and Erythromycin results in FIGS. 5A-5C. […]

[13] = system: B16F10 cells; assay: Cell viability of B16F10 cells; type: cell-based; details: Mus musculus, B16-F10; after 24 and 48 hours incubation
Protocol: A cell viability assay based on cellular reduction of resazurin to the fluorescent product resorufin was performed. Viable cells can metabolize and reduce the dye, whereas dead cells rapidly lose the capacity to do so, making the increase in fluorescence directly proportional to the number of viable cells. The tested compounds were added in a log2 titration and viable cells were analyzed 24 hours after treatment. The fluorescence was determined at an excitation wavelength of 560 nm and an emission wavelength of 590 nm. The percentage of viable cells in relation to the untreated control proliferation was calculated. […] Perhexiline results are depicted graphically in FIGS. 6A-6C and Erythromycin results in FIGS. 7A-7C.
Through the two aforementioned assays it was determined that RENCA cells are more sensitive when treated with Perhexiline than the other cell types in the proliferation assay and in the viability assay. Therefore, the B16F10 cells were subsequently tested. The B16F10 tumor model, like the RENCA model, is an orthotopic tumor model.

[14] = system: Fibroblast; assay: Cell proliferation assay (crystal violet), Fibroblast; type: cell-based; details: 72 hours, OD 595 nm
Protocol: as §2

Question: Which “effects on tumor size and vessel density (as seen with Perhexiline)” value (“effects on tumor size and vessel density” below) [1] does the source give for `CCOC(=O)[C@@]1(CCCCCCOc2ccc(Cl)cc2)CO1` [Etomoxir] here?
Answer: not seen

Question: For `CCc1cc(Cl)c(OC)c(C(=O)NC[C@@H]2CCCN2CC)c1O` [Eticlopride], which “effect on angiogenesis (literature)” value [2] is on record?
Answer: not effect on angiogenesis

Question: And the “HUVEC sprouting, compounds alone, compared to VEGF-induced sprouting” value [3]?
Answer: stimulated sprouting in excess of the VEGF-induced sprouting

Question: With `Clc1ccc(COC(Cn2ccnc2)c2ccc(Cl)cc2Cl)c(Cl)c1` (centres unmarked) [Miconazole] as the molecule, how does the “EC sprouting intensity compared with VEGF control” value [4] read?
Answer: increased sprouting stimulation

Question: And the “fibroblast scattering (invasion) effect” value [5]?
Answer: no fibroblast invasion effect

Question: With `Clc1ccc(Nc2nnc(Cc3ccncc3)c3ccccc23)cc1` [PTK787/ZK222584] as the molecule, how does the “tumor growth compared to control” value [6] read?
Answer: reduced

Question: What about the VEGF-induced sprouting ([3]; at a concentration of 1 μM) of the same molecule?
Answer: completely prevents VEGF-induced sprouting

Question: What about the IC50 [7] of the same molecule?
Answer: 0.1 µM

Question: Which “EC sprouting intensity compared with VEGF control” value [4] does the source give for `CCN(CC)C(=O)N[C@H]1C=C2c3cccc4[nH]cc(c34)C[C@H]2N(C)C1` [Lisuride (S)(−)] here?
Answer: increased sprouting stimulation

Question: What about the “fibroblast scattering (invasion) effect” value [5] of the same molecule?
Answer: no fibroblast invasion effect

Question: Which “effects on tumor size and vessel density” value [1] does the source give for `COc1ccc(CN2CCNCC2)c(OC)c1OC` [Trimetazidine dihydrochloride] here?
Answer: not seen

Question: For `CC[C@H]1OC(=O)[C@H](C)[C@@H](O[C@H]2C[C@@](C)(OC)[C@@H](O)[C@H](C)O2)[C@H](C)[C@@H](O[C@@H]2O[C@H](C)C[C@H](N(C)C)[C@H]2O)[C@](C)(O)C[C@@H](C)C(=O)[C@H](C)[C@@H](O)[C@]1(C)O` [Erythromycin], which IC50 [8] is on record?
Answer: 56 µM

Question: What about the IC50 [9] of the same molecule?
Answer: ~100 µM

Question: And the IC50 [10]?
Answer: > 100 µM

Question: What about the IC50 [11] of the same molecule?
Answer: > 100 µM

Question: What about the IC50 [12] of the same molecule?
Answer: > 100 µM

Question: What about the IC50 [13] of the same molecule?
Answer: 10 µM

Question: What about the “EC sprouting intensity compared with VEGF control” value [4] of the same molecule?
Answer: sprouting inhibition

Question: What about the “fibroblast scattering (invasion) effect” value [5] of the same molecule?
Answer: no fibroblast invasion effect

Question: And the IC50 [14]?
Answer: > 100 µM

Question: For `C#C[C@]1(O)CC[C@H]2[C@@H]3CCC4=Cc5oncc5C[C@]4(C)[C@H]3CC[C@@]21C` [Danazol], which “EC sprouting intensity compared with VEGF control” value [4] is on record?
Answer: increased sprouting stimulation

Question: What about the “fibroblast scattering (invasion) effect” value [5] of the same molecule?
Answer: no fibroblast invasion effect

Question: With `Clc1ccc(COC(Cn2ccnc2)c2ccc(Cl)cc2Cl)cc1.O=[N+]([O-])O` (centres unmarked) [Econazole, 1-[2-{(4-chloro-phenyl)methoxy}-2-(2,4-dichlorophenyl)ethyl]-1H-imidazole mononitrate] as the molecule, how does the “EC sprouting intensity compared with VEGF control” value [4] read?
Answer: angiogenesis stimulators

Question: With `Clc1ccc(CSC(Cn2ccnc2)c2ccc(Cl)cc2Cl)cc1` (racemic) [Sulconazole, (±)-1-[2.4-dichloro-b-[(p-chlorobenzyl)-thio]-phenethyl]imidazole mononitrate] as the molecule, how does the “EC sprouting intensity compared with VEGF control” value [4] read?
Answer: angiogenesis stimulators

Question: For `NCCc1ccc(O)c(O)c1` [Dopamine], which “effect on angiogenesis (literature)” value [2] is on record?
Answer: prevent angiogenesis

Question: With `CC(C)C[C@H]1C(=O)N2CCC[C@H]2[C@]2(O)O[C@](NC(=O)[C@@H]3C=C4c5cccc6[nH]c(Br)c(c56)C[C@H]4N(C)C3)(C(C)C)C(=O)N12` [Bromocriptine, Bromocriptine mesylate] as the molecule, how does the “effect on angiogenesis (literature)” value [2] read?
Answer: prevent angiogenesis

Question: What about the “HUVEC sprouting, compounds alone, compared to VEGF-induced sprouting” value [3] of the same molecule?
Answer: stimulated sprouting in excess of the VEGF-induced sprouting

Question: What about the “EC sprouting intensity compared with VEGF control” value [4] of the same molecule?
Answer: angiogenesis stimulator

Question: Which “effects on tumor size and vessel density” value [1] does the source give for `CC(C)(COP(=O)(O)OP(=O)(O)OC[C@H]1O[C@@H](n2cnc3c(N)ncnc32)[C@H](O)[C@@H]1OP(=O)(O)O)[C@@H](O)C(=O)NCCC(=O)NCCSC(=O)CC(=O)O` [Malonyl-CoA] here?
Answer: not seen
